Source: patent US20260151378A1, “SALT AND CRYSTAL FORM OF HETEROCYCLIC DERIVATIVE INHIBITOR, AND PREPARATION METHOD THEREFOR AND USE THEREOF” (SHANGHAI HANSOH BIOMEDICAL CO., LTD., priority 2022, published 2026)

What was measured:
[1] = Solubility experiment in different vehicles; assay type: physicochemical; settings: 37° C., 2 hours
[2] = Polymorphism study: slurrying of salt crystalline forms in solvents; assay type: physicochemical; settings: 7 days
[3] = Solid stability experiment; assay type: physicochemical
Procedure: About 1 mg of crystalline forms of different salts were taken and investigated at a high temperature of 60° C., a high humidity of RH=92.5%, and a high temperature and high humidity of 50° C. and 75% RH for 7 and 14 days. The changes of related substances were calculated for the crystalline forms of the salts by a chromatographic peak area normalization method.

[4] = Hygroscopicity determination; assay type: physicochemical; settings: for hygroscopicity / weight gain after moisture absorption: RH 80%; for crystalline form transformation (XRPD pattern): after 1 cycle of moisture absorption and desorption, 0-95% relative humidity
Procedure: The crystalline forms of the salt of the compound were placed in saturated water vapor at different relative humidities to reach a dynamic equilibrium between the crystalline forms of the salt of the compound and the water vapor, and the weight gain percentage after moisture absorption after equilibrium was calculated.

[5] = PK study of crystalline forms of different salts in rats; assay type: in vivo; settings: SD rats, gavage, 0.5% HPMC K4M
[6] = system: BRCA2 Knockout DLD-1 cells; test: Inhibition of proliferation of BRCA2 Knockout DLD-1 cells (CellTiter-Glo); assay type: cell-based; settings: Homo sapiens, about 144 hours
Procedure: When using RPMI1640 medium containing 10% FBS to culture BRCA2 Knockout DLD-1 cells to an appropriate cell density, the cells were collected and adjusted with complete medium to an appropriate cell concentration, the cell suspension was spread in a 96-well plate, with 90 μL per well, and the plate was placed in a 37° C., 5% CO2 incubator for overnight adherence. Compound solutions with different concentrations were prepared with DMSO and the culture medium, and a vehicle control was prepared. The compound solutions were added to the 96-well plate, with 10 μL per well, and the plate was placed in a 37° C., 5% CO2 incubator for continued culturing for about 144 hours. CellTiter-Glo solution was added and uniformly mixed by shaking. After incubation for 10-30 minutes in the dark, reading was carried out with Synergy H1 or Envision microplate reader.
The inhibition rate was calculated from the luminescence signal value, and the concentration and inhibition rate were subjected to non-linear regression curve fitting by using Graphpad Prism software to obtain an IC50 value. The inhibitory effects of the compounds of some examples of the present disclosure on the proliferation activity of BRCA2 Knockout DLD-1 cells were as shown in the following table: […]

[7] = system: human colorectal cancer cell strain DLD-1 BRCA2−/−; test: In vivo pharmacodynamics in DLD-1 BRCA2−/− subcutaneous graft tumor model; design: species or system BALB/c nude mice; settings: DLD-1 BRCA2−/− nude mice, oral, once/day, 28 days
Procedure: • a. […] The cells were passaged every three days, and after passage, the cells were placed in a CO2 incubator to continue the culture. This process was repeated until the cell number meets the needs of in vivo efficacy. • c. The cultured cells were collected, counted using a full-automatic cell counter, resuspended with PBS according to the counting results, and prepared into a cell suspension (at a density of 5×10^7/mL), which was then placed in an ice box for use. • a. Nude mouse was marked with a disposable universal ear tag for mice and rats before inoculation. • b. At the time of inoculation, the cell suspension was mixed well, 0.1-1 mL of cell suspension was taken with a 1 mL syringe, and after removing air bubbles, the syringe was placed on an ice bag until use. • c. The nude mouse was secured with the left hand. […] The nude mice were inoculated successively (inoculation with 0.1 mL of cell suspension per mouse). • a. […] According to the weight of tumor-bearing mice and the size of the tumor, the mice were grouped by random grouping. • c. […] Tumors were measured and weighed twice a week after starting administration of test drugs. • e. […] The data was processed with software such as Excel.

[8] = FaSSGF (simulated gastric fluid, fasted)
[9] = FaSSIF (simulated intestinal fluid, fasted)
[10] = FeSSIF (simulated intestinal fluid, fed)

1′-((7-ethyl-6-carbonyl-5,6-dihydro-1,5-diazanaphth-3-yl)methyl)-N-methyl-1′,2′,3′,6′-tetrahydro-[3,4′-bipyridinyl]-6-carboxamide [p-toluenesulfonate dihydrate crystalline Form A]
solubility [1, 8]: >437 µg/mL | solubility [1, 9]: 147 µg/mL | solubility [1, 10]: >340 µg/mL | solubility ([1]; Water): 308 µg/mL | Slurrying result ([2]; 1,4-Dioxane, 40° C.): Still as hydrate crystalline | Slurrying result ([2]; 2-Butanone, 40° C.): Still as hydrate crystalline | Slurrying result ([2]; 2-Methyltetrahydrofuran, 40° C.): Still as hydrate crystalline | Slurrying result ([2]; Acetone, 40° C.): p-Toluenesulfonate crystalline | Slurrying result ([2]; Acetonitrile, 40° C.): p-Toluenesulfonate crystalline | Slurrying result ([2]; Dichloromethane, 40° C.): p-Toluenesulfonate crystalline | Slurrying result ([2]; Ethanol, 40° C.): p-Toluenesulfonate crystalline | Slurrying result ([2]; Ethyl acetate, 40° C.): Still as hydrate crystalline | Slurrying result ([2]; Ethyl formate, 40° C.): p-Toluenesulfonate crystalline | Slurrying result ([2]; Isopropanol, 40° C.): Still as hydrate crystalline | Slurrying result ([2]; Methyl tert-butyl ether, 40° C.): Still as hydrate crystalline | Slurrying result ([2]; Tetrahydrofuran, 40° C.): Still as hydrate crystalline | Slurrying result ([2]; Toluene, 40° C.): Still as hydrate crystalline | Slurrying result ([2]; Trichloromethane, 40° C.): p-Toluenesulfonate crystalline | Slurrying result ([2]; methanol, 40° C.): p-Toluenesulfonate crystalline | Stability result (total impurity increase %) ([3]; 50° C., 75% RH, 7 days): <0.03% | Stability result (total impurity increase %) ([3]; 50° C., 75% RH, 14 days): <0.03% | Stability result (total impurity increase %) ([3]; 60° C., 7 days): <0.03% | Stability result (total impurity increase %) ([3]; 60° C., 14 days): <0.03% | Stability result (total impurity increase %) ([3]; 92.5% RH, 7 days): 0.08% | Stability result (total impurity increase %) ([3]; 92.5% RH, 14 days): <0.03% | hygroscopicity [4]: weak hygroscopicity | weight gain after moisture absorption [4]: 1.906% | crystalline form transformation (XRPD pattern) [4]: no crystalline form transformation occurred | AUC0-t ([5]; 5 mpk): 145.036 µg·h/mL | AUC0-∞ ([5]; 5 mpk): 146.622 µg·h/mL | Cmax ([5]; 5 mpk): 17433 ng/mL | t1/2 ([5]; 5 mpk): 3.8 h | F % ([5]; 5 mpk, 5 mg/kg): 92% | MRT0-∞ ([5]; 5 mpk, 5 mg/kg): 5.4 h | tmax ([5]; 5 mpk, 5 mg/kg): 1.0 h | AUC0-t ([5]; 20 mpk): 558.44 µg·h/mL | AUC0-∞ ([5]; 20 mpk): 587.652 µg·h/mL | Cmax ([5]; 20 mpk): 53400 ng/mL | F % ([5]; 20 mpk): 93% | MRT0-∞ ([5]; 20 mpk): 7.5 h | t1/2 ([5]; 20 mpk): 5.7 h | tmax ([5]; 20 mpk): 4.0 h

CCc1cc2ncc(CN3CCC(c4ccc(C(=O)NC)nc4)=C(F)C3)cc2[nH]c1=O [Example 19]
IC50 [6]: 1.5 nM

CCc1cc2ncc(CN3CC=C(c4ccc(C(=O)NCC(F)(F)F)nc4)CC3)cc2[nH]c1=O [Example 20]
IC50 [6]: 1.4 nM

CCc1cc2ncc(CN3CC=C(c4ccc(C(=O)NC5CC5)nc4)CC3)cc2[nH]c1=O [Example 2]
animal weight [7]: without significant reduction of the animal weight

CCc1cc2ncc(CN3CC=C(c4ccc(C(=O)NCC#N)nc4)CC3)cc2[nH]c1=O [Example 15]
IC50 [6]: 2.4 nM

CCc1cc2ncc(CN3CC=C(c4ccc(C(=O)NC)nc4Cl)CC3)cc2[nH]c1=O [Example 13]
IC50 [6]: 1 nM

CCc1cc2ncc(CN3CC=C(c4ccc(C(=O)NC5(C#N)CC5)nc4)CC3)cc2[nH]c1=O [Example 16]
IC50 [6]: 2.7 nM

CNC(=O)c1ccc(C2=CCN(Cc3cnc4cc(C(F)(F)F)c(=O)[nH]c4c3)CC2)cn1 [Example 21]
IC50 [6]: 5.1 nM

CCc1cc2ncc(CN3CC=C(c4ccc(C(=O)NOC)nc4)CC3)cc2[nH]c1=O [Example 3]
IC50 [6]: 3.2 nM

1′-((7-ethyl-6-carbonyl-5,6-dihydro-1,5-diazanaphth-3-yl)methyl)-N-methyl-1′,2′,3′,6′-tetrahydro-[3,4′-bipyridinyl]-6-carboxamide [sulfate crystalline Form A]
solubility [1, 8]: >466 µg/mL | solubility [1, 9]: 133 µg/mL | solubility [1, 10]: >347 µg/mL | solubility ([1]; Water): 696 µg/mL | Slurrying result ([2]; 1,4-Dioxane, 50° C.): Crystalline Form A | Slurrying result ([2]; 2-Me—THF, 50° C.): Crystalline Form A | Slurrying result ([2]; ACN, 50° C.): Crystalline Form A | Slurrying result ([2]; Acetone, 50° C.): Crystalline Form A | Slurrying result ([2]; EA, 50° C.): Crystalline Form A | Slurrying result ([2]; EtOH, 50° C.): Crystalline Form A | Slurrying result ([2]; MeOH, 50° C.): Crystalline Form A | Slurrying result ([2]; THF, 50° C.): Crystalline Form A | Slurrying result ([2]; Toluene, 50° C.): Crystalline Form A | Stability result (total impurity increase %) ([3]; 50° C., 75% RH, 7 days): 0.12% | Stability result (total impurity increase %) ([3]; 50° C., 75% RH, 14 days): 0.56% | Stability result (total impurity increase %) ([3]; 60° C., 7 days): 0.76% | Stability result (total impurity increase %) ([3]; 60° C., 14 days): 0.66% | Stability result (total impurity increase %) ([3]; 92.5% RH, 7 days): 0.17% | Stability result (total impurity increase %) ([3]; 92.5% RH, 14 days): 0.06% | hygroscopicity [4]: weak hygroscopicity | weight gain after moisture absorption [4]: 1.785% | crystalline form transformation (XRPD pattern) [4]: no crystalline form transformation occurred | AUC0-t ([5]; 5 mpk, 5 mg/kg): 118.078 µg·h/mL | AUC0-∞ ([5]; 5 mpk, 5 mg/kg): 119.241 µg·h/mL | Cmax ([5]; 5 mpk, 5 mg/kg): 14467 ng/mL | F % ([5]; 5 mpk, 5 mg/kg): 75% | MRT0-∞ ([5]; 5 mpk, 5 mg/kg): 5.3 h | t1/2 ([5]; 5 mpk, 5 mg/kg): 3.7 h | tmax ([5]; 5 mpk, 5 mg/kg): 2.0 h
